{
  "source": "patent US20180188258A1",
  "about": "“MARKER FOR HETEROGENEITY OF CANCER TISSUE, AND USE THEREOF” (Keio University, priority 2015, published 2018)",
  "system": "cancer tissue of the Mix mouse (MDA-MB-231 + HCC1937 cells) and of the 231 mouse (MDA-MB-231 cells)",
  "test": "Study on therapeutic effects by anticancer drug in tumor-bearing mice (tumor volume over time)",
  "format": "in vivo",
  "settings": "Paclitaxel 3 mg/kg intraperitoneally once a week; Mix mouse compared with 231 mouse; BALB/c-nu; control physiological saline",
  "description": "The MDA-MB-231 cell line and the HCC1937 cell line were mixed so that the cell number of the HCC1937 cell line was larger than the cell number of the MDA-MB-231 cell line, preferably the cell number of HCC1937 cell line:cell number of MDA-231 cell line was a ratio of 2:1 or more, for example, 9:1. Then, the cell mixture was transplanted into the fourth mammary gland adipose tissue of an immunodeficient mouse (4 weeks old, female, BALB/c-nu) to thereby construct a tumor-bearing mouse (hereinafter, sometimes referred to as “Mix mouse”). Only the MDA-MB-231 cell line and only the HCC1937 cell line were respectively transplanted into the fourth mammary gland adipose tissue of an immunodeficient mouse (4 weeks old, female, BALB/c-nu) to thereby construct tumor-bearing mice (hereinafter, sometimes referred to as “231 mouse” and “1937 mouse”, respectively) as controls.\nPaclitaxel (3 mg/kg) was administered intraperitoneally once a week to Mix mouse and 231 mouse constructed in the same manner as in Experimental Example 2, the tumor diameter was measured with time, and temporal changes in tumor volume were observed (n=5 in each case). As controls, temporal changes in tumor volume were also observed for the groups (control groups) in which physiological saline was administered intraperitoneally in place of paclitaxel (n=5 in each case). […]",
  "data": [
    {"compound": "CC(=O)O[C@H]1C(=O)[C@@]2(C)[C@H]([C@H](OC(=O)c3ccccc3)[C@]3(O)C[C@H](OC(=O)[C@H](O)[C@@H](NC(=O)c4ccccc4)c4ccccc4)C(C)=C1C3(C)C)[C@]1(OC(C)=O)CO[C@@H]1C[C@@H]2O", "note": "[Paclitaxel]", "values": [
      {"measurement": "temporal changes in tumor volume (resistance of the cancer tissue to paclitaxel)", "result": "the cancer tissue of the Mix mouse has higher resistance to paclitaxel than the cancer tissue of the 231 mouse"}
    ]}
  ]
}
